The results in this text go back to ChEMBL document CHEMBL4296183, “CO-ADD screening of NIH NCI Natural Product Set III” (2020).

The test system of one experiment is Pseudomonas aeruginosa. The experiment can be described thus: microbe, parasite or virus in culture. As to conditions: ATCC 27853, 18 h, ASSAY_TEST Inhibition of Bacterial Growth, detection method Absorption (OD600), MEDIA CAMHB, plate type 384well, NBS, CORNING #3640.
The next experiment deals with Staphylococcus aureus. The experiment in a line: microbe, parasite or virus in culture. As to conditions: ATCC 43300, 18 h, ASSAY_TEST Inhibition of Bacterial Growth, detection method Absorption (OD600), MEDIA CAMHB, plate type 384well, NBS, CORNING #3640.
For a further experiment, the system named is Acinetobacter baumannii. The experiment in a line: microbe, parasite or virus in culture. To be noted: ATCC 19606, 18 h, ASSAY_TEST Inhibition of Bacterial Growth, detection method Absorption (OD600), MEDIA CAMHB, plate type 384well, NBS, CORNING #3640.
The subject of a further experiment is HEK293. The experiment can be described thus: cells. The format is functional. As to conditions: Homo sapiens, ATCC CRL1573, HEK293; ASSAY_TEST Inhibition of Cell Viability; detection method Resazurin; Fluorescence (ex560/em590); MEDIA DMEM with 10% FBS; plate type 384well; TC; CORNING #3712; time 18 hr. (Resazurin is reduced to fluorescent resorufin, in cell work by metabolically active cells.)

In the next experiment the test system is Escherichia coli. The experiment can be described thus: microbe, parasite or virus in culture. To be noted: ATCC 25922, 18 h, ASSAY_TEST Inhibition of Bacterial Growth, detection method Absorption (OD600), MEDIA CAMHB, plate type 384well, NBS, CORNING #3640.
For the next experiment, the system named is Klebsiella pneumoniae. The experiment in a line: microbe, parasite or virus in culture. To be noted: ATCC 700603, 18 h, ASSAY_TEST Inhibition of Bacterial Growth, detection method Absorption (OD600), MEDIA CAMHB, plate type 384well, NBS, CORNING #3640.
The test system of the next experiment is Candida albicans. The experiment can be described thus: microbe, parasite or virus in culture. As to conditions: ATCC 90028, ASSAY_TEST Inhibition of Fungal Growth, detection method Absorption (OD530), plate type 384well, NBS, CORNING #3640.

Converted amounts (≈) assume the structure as drawn. Where a name gives a salt, the structure may show the parent alone.

Description for Acinetobacter baumannii: Antibacterial activity against Acinetobacter baumannii ATCC 19606 (CO-ADD:GN_034); MIC in CAMBH media using NBS plates, by OD600
Description for Candida albicans: Antifungal activity against Candida albicans ATCC 90028 (CO-ADD:FG_001); MIC in YNB media using NBS plates, by OD630
Description for Cryptococcus neoformans: Antifungal activity against Cryptococcus neoformans H99 ATCC 208821 (CO-ADD:FG_002); MIC in YNB media using NBS plates, by Resazurin OD(600-570)
Description for Escherichia coli: Antibacterial activity against Escherichia coli ATCC 25922 (CO-ADD:GN_001); MIC in CAMBH media using NBS plates, by OD(600)
Description for Klebsiella pneumoniae: Antibacterial activity against Klebsiella pneumoniae MDR ATCC 70063 (CO-ADD:GN_003); MIC in CAMBH media using NBS plates, by OD(600)
Description for Pseudomonas aeruginosa: Antibacterial activity against Pseudomonas aeruginosa ATCC 27853 (CO-ADD:GN_042); MIC in CAMBH media using NBS plates, by OD(600)
Description for Staphylococcus aureus: Antibacterial activity against Staphylococcus aureus MRSA ATCC 43300 (CO-ADD:GP_020); MIC in CAMBH media, using NBS plates, by OD(600)

Broadly, the CC50 is the concentration giving 50% cytotoxicity. A higher CC50 goes with better tolerance by the cells. With `CN(C)[C@@H]1C(O)=C(C(N)=O)C(=O)[C@@]2(O)C(O)=C3C(=O)c4c(O)ccc(Cl)c4[C@@](C)(O)[C@H]3C[C@@H]12` [CHLORTETRACYCLINE HYDROCHLORIDE], the MIC was 2.5 µM against Pseudomonas aeruginosa; 1.25 µM against Staphylococcus aureus; over 10 µM with Acinetobacter baumannii; over 10 µM in the experiment on Cryptococcus neoformans; 5 µM in the experiment with Escherichia coli; over 10 µM in the experiment with Klebsiella pneumoniae. The MIC in the experiment on Candida albicans was over 10 µM. Further, in the experiment on HEK293, the CC50 was over 10000 nM.
Consider `Cc1c2ccncc2c(C)c2c1[nH]c1ccccc12` [ELLIPTECINE], for which the MIC was over 10 µM in the experiment with Pseudomonas aeruginosa; 10 µM (≈ 2.46 µg/mL) with Staphylococcus aureus; over 10 µM in the experiment on Acinetobacter baumannii; 10 µM (≈ 2.46 µg/mL) in the experiment with Cryptococcus neoformans; over 10 µM against Escherichia coli; over 10 µM against Klebsiella pneumoniae. The MIC in the experiment with Candida albicans was over 10 µM. Moreover, the CC50 with HEK293 came out at 1130 nM.
On to `CC1=C2C(=CC(C)(C)[C@@H]2O)C(=O)[C@](C)(O)C12CC2` [ILLUDIN M], for which the MIC against Pseudomonas aeruginosa, against Staphylococcus aureus, with Acinetobacter baumannii, against Cryptococcus neoformans, against Escherichia coli and in the experiment on Klebsiella pneumoniae was over 10 µM throughout. In the experiment on Candida albicans, this molecule gave an MIC of over 10 µM. In the experiment on HEK293, this molecule yielded a 50% cytotoxic concentration (CC50) of 114 nM.
In the case of `CC1(C)CCC2=C(O1)c1ccccc1C(=O)C2=O` [LAPACHONE], the MIC against Pseudomonas aeruginosa, in the experiment with Staphylococcus aureus, in the experiment with Acinetobacter baumannii, against Cryptococcus neoformans, against Escherichia coli and against Klebsiella pneumoniae was over 10 µM in each case. The molecule also showed an MIC against Candida albicans of over 10 µM. The CC50 with HEK293 is over 10000 nM.
`COc1cc2cc(c1Cl)N(C)C(=O)C[C@H](OC(=O)[C@H](C)N(C)C(C)=O)[C@]1(C)O[C@H]1[C@H](C)[C@@H]1C[C@@](O)(NC(=O)O1)[C@H](OC)/C=C/C=C(\C)C2` [MAYTANSINE]: the MIC against Pseudomonas aeruginosa was over 10 µM; with Staphylococcus aureus it was over 10 µM; with Acinetobacter baumannii, over 10 µM; with Cryptococcus neoformans it was 0.625 µM (≈ 0.433 µg/mL); against Escherichia coli, over 10 µM; against Klebsiella pneumoniae, over 10 µM. Also, in the experiment on Candida albicans, the MIC is over 10 µM. The same molecule had a CC50 in the experiment on HEK293 of over 10000 nM.
For `CC1OC(CC(=O)O)CC2=C1C(=O)c1c(O)cccc1C2=O` (stereo not given) [NANAOMYCIN], the MIC is over 10 µM with Pseudomonas aeruginosa; 0.312 µM (≈ 0.0945 µg/mL) in the experiment on Staphylococcus aureus; over 10 µM in the experiment with Acinetobacter baumannii; 1.25 µM (≈ 0.378 µg/mL) against Cryptococcus neoformans; over 10 µM in the experiment with Escherichia coli; over 10 µM with Klebsiella pneumoniae. This molecule displayed an MIC against Candida albicans of 0.625 µM (≈ 0.189 µg/mL). This molecule showed a CC50 with HEK293 of 188 nM.
For `C=C(C)[C@H]1Cc2c(ccc3c2O[C@@H]2COc4cc(OC)c(OC)cc4[C@@H]2C3=O)O1` [ROTENONE], the MIC is over 10 µM against Pseudomonas aeruginosa; over 10 µM with Staphylococcus aureus; over 10 µM in the experiment on Acinetobacter baumannii; 10 µM (≈ 3.94 µg/mL) in the experiment with Cryptococcus neoformans; over 10 µM in the experiment on Escherichia coli; over 10 µM with Klebsiella pneumoniae. The same molecule came in with an MIC with Candida albicans of over 10 µM. The CC50 with HEK293 is over 10000 nM.
In the case of `CO[C@H]1C[C@@H]2CC[C@@H](C)[C@@](O)(O2)C(=O)C(=O)N2CCCC[C@H]2C(=O)O[C@H]([C@H](C)C[C@@H]2CC[C@@H](O)[C@H](OC)C2)CC(=O)[C@H](C)/C=C(\C)[C@@H](O)[C@@H](OC)C(=O)[C@H](C)C[C@H](C)/C=C/C=C/C=C/1C` [SIROLIMUS], the MIC with Pseudomonas aeruginosa is over 10 µM; in the experiment with Staphylococcus aureus, over 10 µM; with Acinetobacter baumannii, over 10 µM; against Cryptococcus neoformans it was 0.156 µM (≈ 0.143 µg/mL); in the experiment on Escherichia coli it was over 10 µM; against Klebsiella pneumoniae, over 10 µM. Also, the MIC in the experiment on Candida albicans was at most 0.0781 µM. The molecule further gave a CC50 in the experiment on HEK293 of over 10000 nM.
In the case of `COC1=C(N)C(=O)c2nc(-c3nc(C(=O)O)c(C)c(-c4ccc(OC)c(OC)c4O)c3N)ccc2C1=O` [STREPTONIGRIN], the MIC against Pseudomonas aeruginosa was 10 µM (≈ 5.06 µg/mL); in the experiment on Staphylococcus aureus, at most 0.0781 µM; with Acinetobacter baumannii, over 10 µM; in the experiment on Cryptococcus neoformans, 1.25 µM (≈ 0.633 µg/mL); in the experiment on Escherichia coli, 5 µM (≈ 2.53 µg/mL); in the experiment with Klebsiella pneumoniae, over 10 µM. In the experiment with Candida albicans, this molecule came in with an MIC of 0.156 µM (≈ 0.0792 µg/mL). This molecule registered a cytotoxic concentration (CC50) with HEK293 of 115 nM.
As to `COC[C@H]1OC(=O)c2coc3c2[C@@]1(C)C1=C(C3=O)[C@@H]2CCC(=O)[C@@]2(C)C[C@H]1OC(C)=O` [WORTMANNIN], the MIC is over 10 µM against Pseudomonas aeruginosa; over 10 µM in the experiment on Staphylococcus aureus; over 10 µM against Acinetobacter baumannii; 5 µM (≈ 2.14 µg/mL) against Cryptococcus neoformans; over 10 µM in the experiment with Escherichia coli; over 10 µM in the experiment on Klebsiella pneumoniae. This molecule also displayed an MIC against Candida albicans of 0.625 µM (≈ 0.268 µg/mL). The molecule further showed a CC50 in the experiment on HEK293 of 7830 nM.
